Data on 12 compounds can be found in patent US11865110B2, “Thrombin inhibitors, formulations, and uses thereof” (VERSEON INTERNATIONAL CORPORATION, priority 2018, dated 2024).

Series [1] deals with T1, thrombin (Homo sapiens, UniProt P00734).
T1 construct: from tissue; host or cells: human plasma (thrombin generated in situ by tissue factor, phospholipids and CaCl2)
As to the kind of experiment: Human Thrombin Generation Assay (TGA). The note with it: concentration that reduces endogenous thrombin potential AUC by 50%; human plasma; read-out: ETP EC50. The class given is biochemical. Here is the method: Results for the human thrombin generation assay (TGA; not to be confused with “thermogravimetric analysis” which is used elsewhere and carries the same acronym. One of skill in the art will appreciate which meaning is intended based on context of the surrounding technical information.) were generated as follows. In a 96-well plate, 4 μL of 100, 33.3, 11.1, 3.7, 1.23, 0.41, 0.137, and 0.046 μM solutions of the test compounds in DMSO were added to sequential wells filled with 68 μL of a “TGA Working Solution.” See description of this solution as well as other relevant solutions below. The plate was incubated at room temperature for 10 minutes, whereupon 8 μL of warm “Substrate Solution” was added to each well, resulting in a 500 μM concentration of the substrate, Z-GGR-AMC (Z-Gly-Gly-Arg-7-amino-4-methylcoumarin·HCl), in each well. Fluorescence intensity data (Ex/Em 380/460 nm) collection began immediately using a Cytation™ or Synergy™ H1 96-well plate reader set to incubate the plate at 37° C. over the data collection time of 90 minutes following double-orbital shaking for a period of 4 seconds. Test compounds were measured parallel to blanks and controls, as well as to wells of the substrate in DMSO at various concentrations (2.50, 0.833, 0.278, 0.093 mM) in the buffers to generate a standard fluorescence curve. Data values were computed automatically, including the ETP EC50 value of the AUC, which is the concentration of the compound that reduces endogenous thrombin potential AUC by 50%.
The various solutions were prepared as follows. A HEPES/NaCl Assay buffer was made by combining 7.5 mL of 5M NaCl, 1.19 g 4-(2-hydroxyethyl)piperazine-1-ethanesulfonic acid (HEPES) and 230 mL of water. An “Innovin Master Solution” was made by combining 20 μL of Siemens Dade Innovin recombinant tissue factor and thromboplastin with 50 μL of 0.5 mM phospholipid-TGT acquired from DiaPharma® in 450 μL of the above HEPES/NaCl Assay buffer. This solution was then vortexed for a few seconds. Next the “Substrate Master Solution” was made by adding 3.2 mL DMSO to 100 mg of Z-GGR-AMC (Z-Gly-Gly-Arg-7-amino-4-methylcoumarin·HCl) and vortexing in a polystyrene tube. This solution was stored at −20° C. A “TGA Working Solution” was prepared by adding 6.2 mL of human plasma, 50 μL of the Innovin Master Solution, and 80 μL of phospholipids to 2.6 mL of HEPES/NaCl Assay buffer. A “Substrate Working Solution” was made immediately before addition to the assay plate by adding 200 μL of the above “Substrate Master Solution” to a pre-warmed (37° C.) mixture of 1.46 mL of HEPES/NaCl Assay buffer and 340 μL of 1M CaCl2).
For additional description of this assay, please see Robert, S. et al. ‘Is thrombin generation the new rapid, reliable and relevant pharmacological tool for the development of anticoagulant drugs?’2009, Pharmacol Res 59:160-6 as well as Hemker, H. C. et al. ‘Calibrated automated thrombin generation measurement in clotting plasma.’ 2003, Pathophysiol Haemost Thromb 33:4-15.

Series [2] can be described thus: Mouse liver microsome stability. The format is in vitro ADME, mouse (CD-1). The note with it: pH 7.4; CD-1 mouse liver microsomes 0.5 mg/mL, NADPH, 37° C.; lower measurable bound 5. How it is done: In a 96-well Nunc™ plate, 1.5 μL of a 200 μM solution of the test compound in DMSO were placed in a well. This plate, the “Reaction Plate,” was then warmed to 37° C. in an oven. In a second 96-well Nunc™ plate, the “Quench Plate,” six wells were filled with 180 μL of an internal standard quench solution composed of 100 nM diclofenac in acetonitrile. These six wells correspond to the six time points for data collection: 0, 0.5, 5, 15, 30, and 60 minutes. “Assay Buffer” was prepared by combining 6.96 g potassium phosphate, dibasic, 1.36 g potassium phosphate, monobasic, and 0.30 g of magnesium chloride hexahydrate, then diluting to a final concentration of 500 mL in water and adjusting to pH 7.4, as needed. Assay Buffer was warmed to 37° C., and 12 mL were added to a 10-mg vial of NADPH. Then 300 μL of a 20 mg/mL liver microsome suspension were added to yield a 0.5 mg/mL liver microsome suspension. 300 μL of this liver microsome suspension was then added to the test compound solution in the Reaction Plate and mixed thoroughly with a pipette tip. At each time point, 30 μL of this mixture was transferred to the corresponding well of the Quench Plate. In between time points, the Reaction Plate was kept sealed and warmed in an incubator at 37° C. When the last time point had been completed, the quench plate was centrifuged at 4° C. at 1000×g for 10 minutes. Afterwards, 50 μL of the supernatant of each well was transferred to unique, corresponding wells of a 96-well Costar® plate, the “Analysis Plate,” filled with 150 μL of 50:50 acetonitrile:HyClone™ water. The Analysis Plate was then sealed with a pre-slit plate seal before analysis via an appropriate LCMS method with a 10 μL injection. The abstracted AUC data were then automatically plotted to calculate intrinsic clearance in μL/min/mg. This experiment was run alongside a positive and negative control. Due to the parameters of this procedure, one of skill in the art will appreciate that this assay has a lower measurable bound of 5 μL/min/mg; therefore, certain compounds have their clearances labeled as ≤5 μL/min/mg.
In general terms: Microsomes from liver hold many membrane-bound enzymes, among them those of drug oxidation.

The nature of series [3]: Mouse plasma stability. The following applies: CD-1 mouse plasma, 37° C., time points to 160 min; read-out: Mouse Plasma Stability t1/2. The format is in vitro ADME, mouse (CD-1). How it is done:
Alongside a positive control of propantheline bromide, 8 μL of a 1 mM solution of each test compound in DMSO was placed in two wells of a Nunc™ 96-well plate called the “dilution plate.” To one well, 392 μL of HyClone™ water was added and mixed by a pipette. To the other well, 392 μL of mouse or rat plasma stabilized with sodium citrate purchased from Innovative Research was added and mixed by a pipette. The dilution plate was kept covered to reduce solvent evaporation and heated in an incubator at 37° C. At each of the time points enumerated below, the plate was removed from the incubator and 50 μL of the test compound/water or test compound/plasma solutions were transferred to a unique, corresponding well in a “quench plate” (96-well Costar® plate) that contains 150 μL of a quench solution that contains an internal standard (20 uM diclofenac in acetonitrile). The dilution plate was then returned to the incubator. This process was performed at 0, 5, 10, 20, 40, 80, and 160 minutes from the original mixing of the test compounds with the water or plasma in the dilution plate. After the quenching of the 160-minute time point, the quench plate was then centrifuged at 4° C. at 1000×g for 10 minutes. 100 μL of the supernatant of each well were then transferred to corresponding unique wells in a “read plate” (96-well Costar® plate) that were filled with 100 μL of HyClone™ water. The plate was then sealed and analyzed via UHPLC using a 10-μL sample injection through a Phenomenex® Kinetex column pre-equilibrated with the loading buffer (95:5 water:acetonitrile). The parameters were as follows. Mobile Phase A: water, 0.025% formic acid. Mobile Phase B: acetonitrile, 0.025% formic acid. Flow Rate: 0.5 mL/min. […] Half-life (t1/2) times were computed by using a chi-square analysis to fit the peak areas to an exponential decay model for compound concentration as a function of time.

The test system of series [4] is malignant breast tumors. The following applies: treated mice, cited from earlier work.

The structures appear in SMILES notation.

Broadly, the EC50 is the concentration at which the effect is half-maximal. The term microsomal CLint denotes the capacity of the preparation to metabolise the compound, expressed as a volume cleared per time. Read a low microsomal CLint as slow turnover. For `CC(C)(C)C(=O)n1nc(-c2cccn(CC(F)(F)C(=O)O)c2=O)cc1NCc1ccc(Cl)s1` [Compound 6, 3-[3-(5-{[(5-chlorothiophen-2-yl)methyl]amino}-1-(2,2-dimethylpropanoyl)-1H-pyrazol-3-yl)-2-oxo-1,2-dihydropyridin-1-yl]-2,2-difluoropropanoic acid], in series [1], the half-maximal effective concentration (EC50) is 5.4 µM. The intrinsic metabolic clearance (microsomal CLint) at 1 µM in series [2] is 9 µL/min/mg. For the same compound, in series [3], the half-life at 20 µM turned out to be 0.117 h.

For the compound `COCCn1cccc(-c2cc(NCc3ccc(Cl)s3)n(C(=O)C(C)(C)C)n2)c1=O` [Compound 7, 3-(5-{[(5-chlorothiophen-2-yl)methyl]amino}-1-(2,2-dimethylpropanoyl)-1H-pyrazol-3-yl)-1-(2-methoxyethyl)-1,2-dihydropyridin-2-one], in series [1], the EC50 fell in the range of 0.85 to 0.97 µM. In series [2], this compound returned a microsomal CLint at 1 µM of 290 µL/min/mg. Besides, the half-life at 20 µM in series [3] is no less than 5 h.

With `CC(C)(CO)C(=O)n1nc(-c2cccn(CCC(=O)O)c2=O)cc1NCc1ccc(Cl)s1` [Compound 10, 3-[3-(5-{[(5-chlorothiophen-2-yl)methyl]amino}-1-(3-hydroxy-2,2-dimethylpropanoyl)-1H-pyrazol-3-yl)-2-oxo-1,2-dihydropyridin-1-yl]propanoic acid], the EC50 in series [1] lay in the range of 1.7 to 10 µM. The microsomal CLint at 1 µM in series [2] was 4 µL/min/mg. Further, the half-life at 20 µM in series [3] was determined as 1.17 h.

For `CCOC(=O)CCn1cccc(-c2cc(NCc3ccc(Cl)s3)n(C(=O)C(C)(C)C)n2)c1=O` [Compound 15, ethyl 3-[3-(5-{[(5-chlorothiophen-2-yl)methyl]amino}-1-(2,2-dimethylpropanoyl)-1H-pyrazol-3-yl)-2-oxo-1,2-dihydropyridin-1-yl]propanoate], the half-maximal effective concentration (EC50) in series [1] turned out to be 2.9 µM.

Consider `C=CCOC(=O)CCn1cccc(-c2cc(NCc3ccc(Cl)s3)n(C(=O)C(C)(C)C)n2)c1=O` [Compound 16, prop-2-en-1-yl 3-[3-(5-{[(5-chlorothiophen-2-yl)methyl]amino}-1-(2,2-dimethylpropanoyl)-1H-pyrazol-3-yl)-2-oxo-1,2-dihydropyridin-1-yl]propanoate], for which the EC50 in series [1] was 1.9 µM.

Consider `CC(=O)OCCOC(=O)CCn1cccc(-c2cc(NCc3ccc(Cl)s3)n(C(=O)C(C)(C)C)n2)c1=O` [Compound 17, 2-(acetyloxy)ethyl 3-[3-(5-{[(5-chlorothiophen-2-yl)methyl]amino}-1-(2,2-dimethylpropanoyl)-1H-pyrazol-3-yl)-2-oxo-1,2-dihydropyridin-1-yl]propanoate], for which the EC50 in series [1] was 1.2 µM.

On to `CC(=O)OC(C)OC(=O)CCn1cccc(-c2cc(NCc3ccc(Cl)s3)n(C(=O)C(C)(C)C)n2)c1=O` (stereo not shown) [Compound 18, 1-(acetyloxy)ethyl 3-[3-(5-{[(5-chlorothiophen-2-yl)methyl]amino}-1-(2,2-dimethylpropanoyl)-1H-pyrazol-3-yl)-2-oxo-1,2-dihydropyridin-1-yl]propanoate], for which the EC50 in series [1] came out at 1.3 µM.

Regarding `Cc1nc(C)c(COC(=O)CCn2cccc(-c3cc(NCc4ccc(Cl)s4)n(C(=O)C(C)(C)C)n3)c2=O)nc1C` [Compound 20, (3,5,6-trimethylpyrazin-2-yl)methyl 3-[3-(5-{[(5-chlorothiophen-2-yl)methyl]amino}-1-(2,2-dimethylpropanoyl)-1H-pyrazol-3-yl)-2-oxo-1,2-dihydropyridin-1-yl]propanoate], in series [1], the EC50 was 2.4 µM.

Take `CC(C)[C@H](NC(=O)OC(C)(C)C)C(=O)OCOC(=O)CCn1cccc(-c2cc(NCc3ccc(Cl)s3)n(C(=O)C(C)(C)C)n2)c1=O` [Compound 21, ({3-[3-(5-{[(5-chlorothiophen-2-yl)methyl]amino}-1-(2,2-dimethylpropanoyl)-1H-pyrazol-3-yl)-2-oxo-1,2-dihydropyridin-1-yl]propanoyl}oxy)methyl (2S)-2-{[(tert-butoxy)carbonyl]amino}-3-methylbutanoate]: the EC50 in series [1] came to 4.8 µM.

Consider `[2H]C([2H])(C(=O)O)C([2H])([2H])n1cccc(-c2cc(NCc3ccc(Cl)s3)n(C(=O)C(C)(C)C)n2)c1=O` [Compound 22, 3-[3-(5-{[(5-chlorothiophen-2-yl)methyl]amino}-1-(2,2-dimethylpropanoyl)-1H-pyrazol-3-yl)-2-oxo-1,2-dihydropyridin-1-yl](2H4)propanoic acid], for which, in series [1], the EC50 was found to be 1.9 µM.

As to `[2H]C([2H])(Nc1cc(-c2cccn(CCC(=O)O)c2=O)nn1C(=O)C(C)(C)C)c1ccc(Cl)s1` [Compound 24, 3-[3-(5-{[(5-chlorothiophen-2-yl)(2H2)methyl]amino}-1-(2,2-dimethylpropanoyl)-1H-pyrazol-3-yl)-2-oxo-1,2-dihydropyridin-1-yl]propanoic acid], the EC50 in series [1] turned out to be 2.4 µM.

Consider `CCCCCCOC(=O)N=C(N)c1ccc(NCc2nc3cc(C(=O)N(CCC(=O)OCC)c4ccccn4)ccc3n2C)cc1` [dabigatran etexilate], for which, in series [4] (at 4 weeks), the “reduction in tumor volume” value is reported as 50%. Also, the “reduction of tumor cells in the blood and liver micrometastases” value in series [4] was 50-60%.
